Assays:
Carboplatin = compound: C1CC(C1)(C(=O)[O-])C(=O)[O-].N.N.[Pt+2] [Carboplatin]; details: max 10 µM
How it was run: (§1)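 Following 24 hours at 37°C and 5% CO2, cancer cell lines in 1536-well plates with 7.5 μl DMEM/F12 or RPMI and 10% FBS were dosed for 72 hours, final DMSO typically being 0.2%. CellTiter-Glo 2.0 luminescence, scaled between blank-well and DMSO-well means, gave the viability readout. Dose responses were fitted to a two-parameter logistic curve with a non-linear mixed effects model, and the single-agent IC50 was derived from this fit.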

AZD5363 = compound: C1CN(CCC1(C(=O)N[C@@H](CCO)C2=CC=C(C=C2)Cl)N)C3=NC=NC4=C3C=CN4 [AZD5363]; details: max 10 µM
How it was run: as §1

AZD1775 = compound: C=CCn1c(=O)c2cnc(Nc3ccc(N4CCN(C)CC4)cc3)nc2n1-c1cccc(C(C)(C)O)n1 [AZD1775]; details: max 3 µM
How it was run: as §1

Trametinib = compound: CC(=O)Nc1cccc(-n2c(=O)n(C3CC3)c(=O)c3c(Nc4ccc(I)cc4F)n(C)c(=O)c(C)c32)c1 [Trametinib]; details: max 1 µM
How it was run: as §1

Paclitaxel = compound: CC(=O)O[C@H]1C(=O)[C@@]2(C)[C@H]([C@H](OC(=O)c3ccccc3)[C@]3(O)C[C@H](OC(=O)[C@H](O)[C@@H](NC(=O)c4ccccc4)c4ccccc4)C(C)=C1C3(C)C)[C@]1(OC(C)=O)CO[C@@H]1C[C@@H]2O [Paclitaxel]; details: max 3 µM
How it was run: as §1

Palbociclib = compound: CC(=O)c1c(C)c2cnc(Nc3ccc(N4CCNCC4)cn3)nc2n(C2CCCC2)c1=O [Palbociclib]; details: max 10 µM
How it was run: as §1

AZD1390 = compound: CC(C)n1c(=O)n(C)c2cnc3cc(F)c(-c4ccc(OCCCN5CCCCC5)nc4)cc3c21 [AZD1390]; details: max 0.3 µM
How it was run: as §1

Venetoclax = compound: CC1(C)CCC(CN2CCN(c3ccc(C(=O)NS(=O)(=O)c4ccc(NCC5CCOCC5)c([N+](=O)[O-])c4)c(Oc4cnc5[nH]ccc5c4)c3)CC2)=C(c2ccc(Cl)cc2)C1 [Venetoclax]; details: max 1 µM
How it was run: as §1

Dasatinib = compound: CC1=C(C(=CC=C1)Cl)NC(=O)C2=CN=C(S2)NC3=CC(=NC(=N3)C)N4CCN(CC4)CCO [Dasatinib]; details: max 2 µM
How it was run: as §1

SG3199 = compound: CC1=CN2[C@@H](C1)C=NC3=CC(=C(C=C3C2=O)OC)OCCCCCOC4=C(C=C5C(=C4)N=C[C@@H]6CC(=CN6C5=O)C)OC [SG3199]; details: max 0.001 µM
How it was run: as §1

AZD2811 = compound: CCN(CCO)CCCOc1ccc2c(Nc3cc(CC(=O)Nc4cccc(F)c4)[nH]n3)ncnc2c1 [AZD2811]; details: max 1 µM
How it was run: as §1

SN-38 = compound: CCc1c2c(nc3ccc(O)cc13)-c1cc3c(c(=O)n1C2)COC(=O)[C@]3(O)CC [SN-38]; details: max 0.3 µM
How it was run: as §1

AZD0156 = compound: CN(C)CCCOc1ccc(-c2ccc3ncc4c(c3c2)n(C2CCOCC2)c(=O)n4C)cn1 [AZD0156]; details: max 3 µM
How it was run: as §1

AZD4320 = compound: CN(CC[C@H](CSC1=CC=CC=C1)NC2=C(C=C(C=C2)S(=O)(=O)NC(=O)C3=CC=C(C=C3)N4CCC(CC4)[C@H](C5=CC=CC=C5C6=CC=C(C=C6)Cl)O)S(=O)(=O)C(F)(F)F)CCO [AZD4320]; details: max 1 µM
How it was run: as §1

Alisertib = compound: COc1cc(Nc2ncc3c(n2)-c2ccc(Cl)cc2C(c2c(F)cccc2OC)=NC3)ccc1C(=O)O [Alisertib]; details: max 10 µM
How it was run: as §1

Etoposide = compound: COc1cc([C@@H]2c3cc4c(cc3[C@@H](O[C@@H]3O[C@@H]5CO[C@@H](C)O[C@H]5[C@H](O)[C@H]3O)[C@H]3COC(=O)[C@H]23)OCO4)cc(OC)c1O [Etoposide]; details: max 10 µM
How it was run: as §1

Gefitinib = compound: COc1cc2ncnc(Nc3ccc(F)c(Cl)c3)c2cc1OCCCN1CCOCC1 [Gefitinib]; details: max 10 µM
How it was run: as §1

Prexasertib = compound: COc1cccc(OCCCN)c1-c1cc(Nc2cnc(C#N)cn2)n[nH]1 [Prexasertib]; details: max 1 µM
How it was run: as §1

Doxorubicin = compound: COc1cccc2c1C(=O)c1c(O)c3c(c(O)c1C2=O)C[C@@](O)(C(=O)CO)C[C@@H]3O[C@H]1C[C@H](N)[C@H](O)[C@H](C)O1 [Doxorubicin]; details: max 1 µM
How it was run: as §1

AZD5153 = compound: COc1nnc2ccc(N3CCC(c4ccc(OCCN5CCN(C)C(=O)[C@H]5C)cc4)CC3)nn12 [AZD5153]; details: max 1 µM
How it was run: as §1

Lapatinib = compound: CS(=O)(=O)CCNCc1ccc(-c2ccc3ncnc(Nc4ccc(OCc5cccc(F)c5)c(Cl)c4)c3c2)o1 [Lapatinib]; details: max 10 µM
How it was run: as §1

AZD8186 = compound: C[C@@H](Nc1cc(F)cc(F)c1)c1cc(C(=O)N(C)C)cc2c(=O)cc(N3CCOCC3)oc12 [AZD8186]; details: max 10 µM
How it was run: as §1

Crizotinib = compound: C[C@@H](Oc1cc(-c2cnn(C3CCNCC3)c2)cnc1N)c1c(Cl)ccc(F)c1Cl [Crizotinib]; details: max 10 µM
How it was run: as §1

Savolitinib = compound: C[C@@H](c1ccc2nccn2c1)n1nnc2ncc(-c3cnn(C)c3)nc21 [Savolitinib]; details: max 1 µM
How it was run: as §1

AZD6738 = compound: C[C@@H]1COCCN1C2=NC(=NC(=C2)C3(CC3)[S@](=N)(=O)C)C4=C5C=CNC5=NC=C4 [AZD6738]; details: max 10 µM
How it was run: as §1

AZD5991 = compound: Cc1c2c(nn1C)CSCc1cc(n(C)n1)CSc1cc(c3ccccc3c1)OCCCc1c(C(=O)O)n(C)c3c-2c(Cl)ccc13 [AZD5991]; details: max 1 µM
How it was run: as §1

AZD7648 = compound: Cc1cc2ncnn2cc1Nc1ncc2c(n1)n(C1CCOCC1)c(=O)n2C [AZD7648]; details: max 10 µM
How it was run: as §1

Taselisib = compound: Cc1nc(-c2cn3c(n2)-c2ccc(-c4cnn(C(C)(C)C(N)=O)c4)cc2OCC3)n(C(C)C)n1 [Taselisib]; details: max 10 µM
How it was run: as §1

Selumetinib = compound: Cn1cnc2c(F)c(Nc3ccc(Br)cc3Cl)c(C(=O)NOCCO)cc21 [Selumetinib]; details: max 10 µM
How it was run: as §1

SRA737 = compound: N#Cc1cnc(Nc2cc(NC[C@H]3CNCCO3)c(C(F)(F)F)cn2)cn1 [SRA737]; details: max 10 µM
How it was run: as §1

MK-2206 = compound: NC1(c2ccc(-c3nc4ccn5c(=O)[nH]nc5c4cc3-c3ccccc3)cc2)CCC1 [MK-2206]; details: max 10 µM
How it was run: as §1

Gemcitabine = compound: Nc1ccn([C@@H]2O[C@H](CO)[C@@H](O)C2(F)F)c(=O)n1 [Gemcitabine]; details: max 0.3 µM
How it was run: as §1

[1] = compound: O=C(Nc1ccc2[nH]nc(-c3ccncc3)c2c1)[C@@H]1CCN(CC(=O)N2CCN(c3ccc(-c4ncccn4)cc3)CC2)C1; details: max 5 µM
How it was run: as §1

Olaparib = compound: O=C(c1cc(Cc2n[nH]c(=O)c3ccccc23)ccc1F)N1CCN(C(=O)C2CC2)CC1 [Olaparib]; details: max 10 µM
How it was run: as §1

5-Fluorouracil = compound: O=c1[nH]cc(F)c(=O)[nH]1 [5-Fluorouracil]; details: max 20 µM
How it was run: as §1

With Hs-633T (Other Solid Carcinomas) the “IC50, cell viability 72 h” value (Carboplatin) was greater than 10000 nM, the “IC50, cell viability 72 h” value (AZD5363) was greater than 10000 nM and the “IC50, cell viability 72 h” value (AZD1775) was 472 nM. The “IC50, cell viability 72 h” value (Trametinib) was 656 nM, the “IC50, cell viability 72 h” value (Paclitaxel) was 30.4 nM and the “IC50, cell viability 72 h” value (Palbociclib) was greater than 10000 nM. For the same cell line, the “IC50, cell viability 72 h” value (AZD1390) was greater than 300 nM, the “IC50, cell viability 72 h” value (Venetoclax) was greater than 1000 nM and the “IC50, cell viability 72 h” value (Dasatinib) was 334 nM. For the same cell line, the “IC50, cell viability 72 h” value (SG3199) was greater than 1 nM, the “IC50, cell viability 72 h” value (AZD2811) was greater than 1000 nM and the “IC50, cell viability 72 h” value (SN-38) was 38.2 nM. For the same cell line, the “IC50, cell viability 72 h” value (AZD0156) was greater than 3000 nM, the “IC50, cell viability 72 h” value (AZD4320) was greater than 1000 nM and the “IC50, cell viability 72 h” value (Alisertib) was 9060 nM. For the same cell line, the “IC50, cell viability 72 h” value (Etoposide) was 5070 nM, the “IC50, cell viability 72 h” value (Gefitinib) was greater than 10000 nM and the “IC50, cell viability 72 h” value (Prexasertib) was 81.4 nM. The “IC50, cell viability 72 h” value (Doxorubicin) was 380 nM, the “IC50, cell viability 72 h” value (AZD5153) was 570 nM and the “IC50, cell viability 72 h” value (Lapatinib) was greater than 10000 nM. The “IC50, cell viability 72 h” value (AZD8186) was greater than 10000 nM, the “IC50, cell viability 72 h” value (Crizotinib) was 7000 nM and the “IC50, cell viability 72 h” value (Savolitinib) was greater than 1000 nM. The “IC50, cell viability 72 h” value (AZD6738) was 3300 nM, the “IC50, cell viability 72 h” value (AZD5991) was greater than 1000 nM and the “IC50, cell viability 72 h” value (AZD7648) was greater than 10000 nM. The “IC50, cell viability 72 h” value (Taselisib) was 7460 nM, the “IC50, cell viability 72 h” value (Selumetinib) was greater than 10000 nM and the “IC50, cell viability 72 h” value (SRA737) was greater than 10000 nM. For the same cell line, the “IC50, cell viability 72 h” value (MK-2206) was greater than 10000 nM, the “IC50, cell viability 72 h” value (Gemcitabine) was 14.5 nM and the “IC50, cell viability 72 h” value [1] was 3360 nM. For the same cell line, the “IC50, cell viability 72 h” value (Olaparib) was greater than 10000 nM and the “IC50, cell viability 72 h” value (5-Fluorouracil) was greater than 20000 nM.

In the case of SW1116 (Colorectal Carcinoma), the “IC50, cell viability 72 h” value (Carboplatin) was greater than 10000 nM, the “IC50, cell viability 72 h” value (AZD5363) was greater than 10000 nM and the “IC50, cell viability 72 h” value (AZD1775) was greater than 3000 nM. The “IC50, cell viability 72 h” value (Trametinib) was 242 nM, the “IC50, cell viability 72 h” value (Paclitaxel) was 2740 nM and the “IC50, cell viability 72 h” value (Palbociclib) was greater than 10000 nM. The “IC50, cell viability 72 h” value (AZD1390) was greater than 300 nM, the “IC50, cell viability 72 h” value (Venetoclax) was greater than 1000 nM and the “IC50, cell viability 72 h” value (Dasatinib) was greater than 2000 nM. The “IC50, cell viability 72 h” value (SG3199) was greater than 1 nM, the “IC50, cell viability 72 h” value (AZD2811) was greater than 1000 nM and the “IC50, cell viability 72 h” value (SN-38) was greater than 300 nM. The “IC50, cell viability 72 h” value (AZD0156) was greater than 3000 nM, the “IC50, cell viability 72 h” value (AZD4320) was greater than 1000 nM and the “IC50, cell viability 72 h” value (Alisertib) was greater than 10000 nM. For the same cell line, the “IC50, cell viability 72 h” value (Etoposide) was greater than 10000 nM, the “IC50, cell viability 72 h” value (Gefitinib) was greater than 10000 nM and the “IC50, cell viability 72 h” value (Prexasertib) was 824 nM. The “IC50, cell viability 72 h” value (Doxorubicin) was greater than 1000 nM, the “IC50, cell viability 72 h” value (AZD5153) was greater than 1000 nM and the “IC50, cell viability 72 h” value (Lapatinib) was greater than 10000 nM. The “IC50, cell viability 72 h” value (AZD8186) was greater than 10000 nM, the “IC50, cell viability 72 h” value (Crizotinib) was greater than 10000 nM and the “IC50, cell viability 72 h” value (Savolitinib) was greater than 1000 nM. The “IC50, cell viability 72 h” value (AZD6738) was greater than 10000 nM, the “IC50, cell viability 72 h” value (AZD5991) was greater than 1000 nM and the “IC50, cell viability 72 h” value (AZD7648) was greater than 10000 nM. The “IC50, cell viability 72 h” value (Taselisib) was greater than 10000 nM, the “IC50, cell viability 72 h” value (Selumetinib) was greater than 10000 nM and the “IC50, cell viability 72 h” value (SRA737) was greater than 10000 nM. The “IC50, cell viability 72 h” value (MK-2206) was greater than 10000 nM, the “IC50, cell viability 72 h” value (Gemcitabine) was greater than 300 nM and the “IC50, cell viability 72 h” value [1] was greater than 5000 nM. For the same cell line, the “IC50, cell viability 72 h” value (Olaparib) was greater than 10000 nM and the “IC50, cell viability 72 h” value (5-Fluorouracil) was greater than 20000 nM.

Reference: the supplement of paper PMC11061612
